The numbers were not newly measured in PMC9096979 (ACS Omega, 2022), which cites them from elsewhere.

This data set addresses myotoxin II (Bothrops asper, UniProt P24605).

Sequence of myotoxin II (P24605 17-137 limits assumed): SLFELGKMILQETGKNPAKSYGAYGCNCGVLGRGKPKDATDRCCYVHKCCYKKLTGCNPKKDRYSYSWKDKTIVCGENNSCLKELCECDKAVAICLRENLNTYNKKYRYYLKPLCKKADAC

Take `Cc1ccc(C(=O)Nc2ccc(S(=O)(=O)O)c3cc(S(=O)(=O)O)cc(S(=O)(=O)O)c23)cc1NC(=O)c1cccc(NC(=O)Nc2cccc(C(=O)Nc3cc(C(=O)Nc4ccc(S(=O)(=O)O)c5cc(S(=O)(=O)O)cc(S(=O)(=O)O)c45)ccc3C)c2)c1` [suramin]: the “inhibition of myotoxin II, in words” value is “capable of inhibiting myotoxin II”.
